Molecular target: Carbonic anhydrase 2 (Homo sapiens, UniProt P00918)
Experiment: Binding affinity to human carbonic anhydrase 2 by surface plasmon resonance spectrometry

Kd: > 2000 µM
Compound: O=c1[nH]c(O)c(-c2ccccc2)[nH]1 [5-Phenyl-imidazolidine-2,4-dione]

Reference: BindingDB's records for doi:10.1021/acs.jmedchem.7b00606 (Griffith University, 2017)
